Data on 32 compounds can be found in ChEMBL document CHEMBL1154653, “Discovery and pharmacological characterization of aryl piperazine and piperidine ethers as dual acting norepinephrine reuptake inhibitors and 5-HT1A partial agonists” (Bioorg Med Chem Lett, 2009).

Data set [1] addresses T1, 5-hydroxytryptamine receptor 1A (Homo sapiens, UniProt P08908).
T1 sequence (P08908 whole entry): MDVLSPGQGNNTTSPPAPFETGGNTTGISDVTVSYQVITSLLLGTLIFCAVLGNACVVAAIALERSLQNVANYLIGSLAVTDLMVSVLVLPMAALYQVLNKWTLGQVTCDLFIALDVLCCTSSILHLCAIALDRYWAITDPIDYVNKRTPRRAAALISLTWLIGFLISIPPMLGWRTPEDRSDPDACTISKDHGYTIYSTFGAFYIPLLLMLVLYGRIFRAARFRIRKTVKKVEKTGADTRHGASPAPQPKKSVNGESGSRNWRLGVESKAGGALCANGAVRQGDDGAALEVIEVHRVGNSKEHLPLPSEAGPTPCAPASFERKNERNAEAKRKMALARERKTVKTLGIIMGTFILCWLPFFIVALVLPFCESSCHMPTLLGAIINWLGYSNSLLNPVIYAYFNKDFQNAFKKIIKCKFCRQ
Description: biochemical.
Description: Displacement of [3H]8-OH-DPAT from human 5HT1A receptor expressed in CHO cells

Data set [2] concerns the target T2, Sodium-dependent dopamine transporter (Homo sapiens, UniProt Q01959). The class given is cell-based, HEK293.
In data set [3] the target is T3, Sodium-dependent serotonin transporter (Homo sapiens, UniProt P31645). Description: biochemical.
Description: Displacement of [125I]RTI-55 from human SERT expressed in HEK293 cells
The target of data set [4] is T4, 5-hydroxytryptamine receptor 1A (Homo sapiens) (UniProt P08908).
T4 sequence (whole entry): T1 sequence (P08908 whole entry)
Description: Partial agonist activity at human 5HT1A expressed in HEK293 cells by FLIPR assay relative to 5HT. The class given is functional, cell-based.

For data set [5], the target named is T3, Sodium-dependent serotonin transporter. Kind of data set: Inhibition of [3H]5-HT uptake at human 5HTT expressed in HEK293 cells. It is filed as cell-based.
A short description of data set [6]: Apparent intrinsic clearance in human liver microsomes. The class given is ADME, Microsome.
The target in data set [7] is T1, 5-hydroxytryptamine receptor 1A. Description: Partial agonist activity at human 5HT1A expressed in HEK293 cells by FLIPR assay. It is filed as functional, cell-based.
The target of data set [8] is T5, Sodium-dependent noradrenaline transporter (Homo sapiens, UniProt P23975). Description: Inhibition of norepinephrine uptake at human NET expressed in HEK293 cells. The class given is cell-based.
The target in data set [9] is T2, Sodium-dependent dopamine transporter. Kind of data set: Inhibition of dopamine uptake at human DAT expressed in HEK293 cells. The class given is cell-based.
Data set [10] concerns the target T5, Sodium-dependent noradrenaline transporter. Kind of data set: biochemical.
Description: Displacement of [125I]RTI-55 from human NET expressed in HEK293 cells
For data set [11], the system named is Rattus norvegicus. Kind of data set: Ex vivo receptor occupancy at NET receptor in Sprague-Dawley rat brain at 10 mg/kg, sc by [3H]nisoxetine binding. The class given is functional. To be noted: route subcutaneous.
Data set [12] relates to Rattus norvegicus. Description: Ex vivo receptor occupancy at 5HT1A receptor in Sprague-Dawley rat brain at 10 mg/kg, sc by [3H]-OH-DAPT binding. It is filed as functional. To be noted: route subcutaneous.

T5 sequence (P23975 whole entry): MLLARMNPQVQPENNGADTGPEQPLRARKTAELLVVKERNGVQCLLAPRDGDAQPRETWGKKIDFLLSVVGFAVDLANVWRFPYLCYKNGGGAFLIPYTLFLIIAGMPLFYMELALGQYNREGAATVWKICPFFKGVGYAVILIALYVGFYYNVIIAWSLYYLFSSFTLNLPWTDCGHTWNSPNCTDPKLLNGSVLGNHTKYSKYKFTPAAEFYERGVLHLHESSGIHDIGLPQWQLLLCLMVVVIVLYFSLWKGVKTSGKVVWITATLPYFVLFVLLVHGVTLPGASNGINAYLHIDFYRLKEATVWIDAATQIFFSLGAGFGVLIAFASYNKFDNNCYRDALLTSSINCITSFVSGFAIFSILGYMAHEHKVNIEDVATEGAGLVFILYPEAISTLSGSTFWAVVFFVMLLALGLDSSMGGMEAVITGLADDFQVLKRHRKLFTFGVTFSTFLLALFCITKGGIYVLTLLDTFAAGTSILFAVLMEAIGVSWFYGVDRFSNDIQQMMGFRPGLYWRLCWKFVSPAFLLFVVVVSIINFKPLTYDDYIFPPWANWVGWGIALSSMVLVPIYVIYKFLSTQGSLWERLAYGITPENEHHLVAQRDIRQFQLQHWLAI
T3 sequence (P31645 whole entry): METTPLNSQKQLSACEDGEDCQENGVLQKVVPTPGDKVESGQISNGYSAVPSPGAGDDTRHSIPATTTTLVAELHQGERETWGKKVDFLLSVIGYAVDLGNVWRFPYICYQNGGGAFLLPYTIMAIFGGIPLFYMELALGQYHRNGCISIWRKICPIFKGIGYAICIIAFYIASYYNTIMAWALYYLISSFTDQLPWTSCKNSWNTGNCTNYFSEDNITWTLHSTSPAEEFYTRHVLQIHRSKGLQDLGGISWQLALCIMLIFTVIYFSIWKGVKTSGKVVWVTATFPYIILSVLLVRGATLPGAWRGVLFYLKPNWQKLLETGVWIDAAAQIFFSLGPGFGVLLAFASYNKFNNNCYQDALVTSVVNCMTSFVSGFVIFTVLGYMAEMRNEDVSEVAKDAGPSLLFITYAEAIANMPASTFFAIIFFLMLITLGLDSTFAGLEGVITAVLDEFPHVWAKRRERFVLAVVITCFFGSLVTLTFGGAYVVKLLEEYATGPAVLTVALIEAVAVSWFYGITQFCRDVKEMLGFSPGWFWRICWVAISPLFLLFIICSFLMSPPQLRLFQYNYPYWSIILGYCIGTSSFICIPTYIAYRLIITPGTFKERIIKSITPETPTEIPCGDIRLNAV
T2 sequence (Q01959 whole entry): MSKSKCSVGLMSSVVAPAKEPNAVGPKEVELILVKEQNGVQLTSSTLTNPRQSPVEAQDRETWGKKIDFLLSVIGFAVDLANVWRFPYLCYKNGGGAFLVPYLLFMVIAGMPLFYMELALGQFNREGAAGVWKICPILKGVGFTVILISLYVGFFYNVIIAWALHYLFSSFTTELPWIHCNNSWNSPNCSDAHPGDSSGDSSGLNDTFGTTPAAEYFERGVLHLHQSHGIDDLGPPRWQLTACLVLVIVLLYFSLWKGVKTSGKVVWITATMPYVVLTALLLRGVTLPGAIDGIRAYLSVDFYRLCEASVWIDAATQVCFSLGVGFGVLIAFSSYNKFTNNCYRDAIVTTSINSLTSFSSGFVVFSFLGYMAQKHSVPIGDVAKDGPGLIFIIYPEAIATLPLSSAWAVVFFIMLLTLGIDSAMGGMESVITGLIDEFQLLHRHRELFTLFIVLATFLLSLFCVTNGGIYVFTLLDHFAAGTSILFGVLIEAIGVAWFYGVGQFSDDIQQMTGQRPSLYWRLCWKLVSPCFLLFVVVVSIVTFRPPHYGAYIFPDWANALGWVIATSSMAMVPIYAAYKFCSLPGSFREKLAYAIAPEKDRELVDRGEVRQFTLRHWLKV

In general, Ki refers to a dissociation constant, usually derived from enzyme kinetics or from competition with a known ligand. In the case of `Fc1ccc(COc2ccc(F)cc2C2CCNCC2)cc1`, the affinity in [1], expressed as Ki, was 2210 nM.
Take `c1ccc(OCc2ccccc2N2CCNCC2)cc1`: the Ki in data set [2] amounted to 701 nM; in data set [3], 780 nM; in [1], 189 nM.
Compound `Fc1ccccc1COc1ccccc1C1CCNCC1` gave a Ki in [1] of 47 nM.
`Fc1ccc(Oc2ccccc2C2CCNCC2)cc1` yielded a Ki in data set [1] of 117 nM.
One may read the Emax as the maximal effect, on the per cent scale that the assay sets. The compound `Fc1cccc(Oc2ccccc2C2CCNCC2)c1` gave an Emax in data set [4] of 51%.
The term EC50 denotes the midpoint of the concentration-response curve. Low values mean a more potent agent, high ones a less potent agent. One may read the microsomal CLint as the capacity of the preparation to metabolise the compound, expressed as a volume cleared per time. Regarding `Fc1cccc(C2CCNCC2)c1Oc1ccccc1`, the Ki stood at 239 nM in data set [2], 2330 nM in data set [3], 20 nM in [1] and 1370 nM in data set [10]. For the same compound, in [4], the Emax came to 35%. Moreover, the EC50 in data set [5] stood at 1760 nM; in data set [7], 877 nM; in data set [8] it was 358 nM; in data set [9], 982 nM. The microsomal CLint in data set [6] is 15 µL/min/mg.
Take `Fc1cccc(C2CCNCC2)c1OCc1ccccc1`: the Ki in data set [2] is 7370 nM; in data set [3] it was 2970 nM; in [1], 606 nM; in [10], 9 nM.
As to `Fc1ccc(OCc2ccc(Cl)c(Cl)c2)c(C2CCNCC2)c1`, the Ki in data set [2] is 452 nM; in data set [3] it was 2 nM; in [1] it was 1160 nM; in [10], 20 nM.
As to `Fc1cccc(OCc2ccccc2N2CCNCC2)c1F`, in [1], the Ki was 101 nM.
Compound `Fc1cccc(OCc2ccccc2)c1C1CCNCC1` showed a Ki in [1] of 364 nM.
As to `Fc1ccc(Oc2cc(F)c(F)cc2C2CCNCC2)cc1`, the Ki in [1] is over 4570 nM.
`Fc1cccc(Oc2ccccc2N2CCNCC2)c1` returned a Ki in data set [1] of 9 nM.
As to `c1ccc(OCc2ccccc2C2CCNCC2)cc1`, the Ki in [2] is 396 nM; in data set [3] it was 364 nM; in data set [1] it was over 1000 nM; in data set [10], 1710 nM.
Turning to `c1ccc(N2CCNCC2)c(COc2ccccc2C2CC2)c1`, the affinity in data set [1], expressed as Ki, was 466 nM.
As to `Fc1cccc(Oc2ccccc2)c1C1CCNCC1`, the Ki in [2] came out at 45 nM; in data set [3], 706 nM; in data set [1], 128 nM; in data set [10], 170 nM.
For `c1ccc(Oc2ccccc2C2CCNCC2)cc1`, in that order: 284 nM, 1760 nM, 63 nM and 416 nM.
In data set [7], `c1ccc(COc2ccccc2N2CCNCC2)cc1` showed an EC50 of over 10000 nM. In data set [1], this compound gave a Ki of 28 nM.
`c1ccc(COc2ccccc2C2CCNCC2)cc1`: the Ki in data set [2] turned out to be 1000 nM; in [3] it was 74 nM; in data set [1], 121 nM; in data set [10], 76 nM.
On to `Cc1ccc(F)c(Oc2ccccc2C2CCNCC2)c1`, for which the Ki in data set [2] came out at 1080 nM; in data set [3], 26 nM; in data set [1], 57 nM; in data set [10], 3 nM.
Consider `Clc1cccc(Oc2ccccc2C2CCNCC2)c1`, for which, in data set [4], the Emax was 44%. For the same compound, in [7], the response was half-maximal at 1150 nM (EC50). This compound registered a Ki in data set [1] of 5 nM.
Turning to `Fc1ccc(COc2ccccc2C2CCNCC2)cc1`, in data set [1], the Ki was found to be 77 nM.
In turn, `Fc1cccc(Oc2cccc(F)c2C2CCNCC2)c1` showed an Emax in data set [4] of 74%. In addition, the figures for the Activity in the data set on Rattus norvegicus [11] and with Rattus norvegicus [12] were 80% and 77%, respectively. In addition, it took 137 nM to reach a half-maximal effect in data set [7] (EC50). The Ki in [1] was found to be 21 nM.
Turning to `O=C1/C(=C/c2ccccc2N2CCNCC2)SCCN1c1ccc(F)cc1F`, the Ki in data set [2] was 1360 nM; in [3] it was 98 nM; in data set [1], 4 nM; in data set [10], 650 nM.
For the compound `c1ccc(Oc2ccccc2N2CCNCC2)cc1`, the Ki in data set [2] was found to be 4730 nM; in [1], 128 nM; in data set [10], 554 nM.
As to `Fc1ccccc1COc1ccccc1N1CCNCC1`, the Ki is over 10000 nM in data set [2], 978 nM in data set [3], 31 nM in data set [1] and 526 nM in [10].
In the case of `Cc1ccc(C2CCNCC2)c(Oc2cccc(F)c2)c1`, the Ki in [1] was over 4570 nM.
Same read-out and setting: to `Fc1ccc(Oc2ccccc2N2CCNCC2)cc1` belongs 8 nM.
Consider `O=C1C(Cc2ccccc2N2CCNCC2)SCCN1c1ccc(Cl)c(Cl)c1` (centres undefined), for which the Ki in data set [2] stood at 87 nM; in [3] it was 81 nM; in [1] it was 9 nM; in data set [10], 5 nM.
The matching figures for `Fc1cccc(OCc2ccccc2N2CCNCC2)c1`: over 2000 nM, 17 nM, 116 nM and 104 nM.
In the case of `Fc1cccc(OCc2ccccc2C2CCNCC2)c1`, the Ki is 461 nM in data set [2], 49 nM in data set [3], over 1000 nM in data set [1] and 1940 nM in data set [10].
As for `Cc1ccc(C2CCNCC2)c(Oc2ccc(F)cc2)c1`, the Ki was 1680 nM in [2], 427 nM in [3], over 4570 nM in [1] and 115 nM in data set [10].
With `Fc1ccc(COc2ccc(Cl)cc2C2CCNCC2)cc1`, the Ki in data set [2] is 5530 nM; in data set [3], 40 nM; in [1], over 1000 nM; in data set [10], 6 nM.
